± gives the expanded uncertainty stated by the source.

A short description of the data set: activity coefficient (dimensionless); of the first substance listed, at infinite dilution; xn = mol fraction of the nth substance listed. As to conditions: 298.15 K; 238 kPa; Liquid; Chromatography; x1 = 0.
As to `Cc1ccccc1C` [1,2-dimethylbenzene] + CNC=O, the activity coefficient worked out at 9.8 ± 1.1.
Take `Cc1cccc(C)c1` [1,3-dimethylbenzene] + CNC=O: the activity coefficient was 10.8 ± 0.7.
`Cc1ccc(C)cc1` [1,4-dimethylbenzene] + CNC=O: the activity coefficient was 10.4 ± 0.9.
With `C=CCCCCC=C` [1,7-octadiene] + CNC=O, the activity coefficient stood at 23 ± 2.1.
With `Cc1ccc(C(C)C)cc1` [1-(1-methylethyl)-4-methylbenzene] + CNC=O, the activity coefficient was determined as 22.3 ± 2.1.
In the case of `C=CC1CC=CCC1` (centres undefined) [4-ethenylcyclohexene] + CNC=O it was 16.6 ± 1.9; in that of `c1ccccc1` [benzene] + CNC=O, 4.8 ± 0.4.
As for `Brc1ccccc1` [bromobenzene] + CNC=O, the activity coefficient was 6.3 ± 0.5.
In the case of `Clc1ccccc1` [chlorobenzene] + CNC=O it was 5.2 ± 0.6.
In the case of `C1CCCCCCC1` [cyclooctane] + CNC=O, the activity coefficient was 42.3 ± 3.3.
The result for `CCCCCCCCCC` [decane] + CNC=O reads 194 ± 9.1; that for `Fc1ccccc1` [fluorobenzene] + CNC=O, 4 ± 0.3.
With `CCCCCCC` [heptane] + CNC=O, the activity coefficient was 60.5 ± 4.8.
Take `CCCCCC` [hexane] + CNC=O: the activity coefficient stood at 38.6 ± 7.5.
Regarding `c1ccc2ccccc2c1` [naphthalene] + CNC=O, the activity coefficient was found to be 26.7 ± 3.7.
On to `CCCCCCCCC` [nonane] + CNC=O, for which the activity coefficient is 122 ± 6.3.
`CCCCCCCC` [octane] + CNC=O: the activity coefficient was 83.9 ± 4.5.
`Cc1ccccc1` [toluene] + CNC=O: the activity coefficient is 7 ± 0.6.
In the case of `CCCCCCCCCCC` [undecane] + CNC=O it was 318 ± 32.

The record behind these values is the NIST ThermoML archive (doi:10.1016/j.tca.2015.11.010).
